Results on 15 molecules are retold here after patent US8071744B2, “TRP/HIS exchange and kynurenin induced TRP transport” (Carnegie Institution of Washington, priority 2007, dated 2011).

The test system of assay [1] is COS-7 cells. Put plainly: Ratio imaging of intracellular tryptophan in perfused COS-7 cells expressing FLIPW-CTYT (uptake and exchange). Format: cell-based, monkey. Conditions: for tryptophan export from tryptophan-preloaded cells (counterexchange): extracellular amino acids at 100 μM, DL-HK 200-1000 μM; for effect on the uptake rate of 100 μM L-tryptophan: inhibitors at 5 mM. How it is done:
(§1) Tissue culture and transfection. For cytosolic expression in COS-7 cells, the gene encoding CTYT was amplified by PCR with primers encoding unique BamHI and EcoRI restriction sites at the 5′ and 3′ end, respectively, and cloned into BamHI/EcoRI digested peDNA3.1(+) vector (Invitrogen), resulting in plasmid pTK222. COS-7 cells were grown in Dulbecco's modified Eagle's medium (high glucose; DMEM, Gibco) with 10% fetal calf serum and 50 μg; ml penicillin and 50 μg/ml streptomycin (Gibco). Cells were cultured at 37° C. and 5% CO2. For imaging, cells were cultured in 8-well LabTekII German tissue culture glass slides (Nalg Nunc International) and transiently transfected at 50-70% confluence using Lipofectamine 2000 Reagent (Invitrogen) in Opti-MEM I reduced serum medium (Gibco): After transfection, cells were cultured for 16 hours in Opti-MEM followed by 3 hours in DMEM prior to imaging.
Imaging. Ratio imaging was performed on an inverted fluorescence microscope (DM IRE2, Leica) with a Quant EM digital camera (Photometrics) and 20× oil immersion, 63× water immersion lenses (HC PL APO 20×/0.7 or HCX PL APO, Leica, Germany). Dual emission intensity ratios were simultaneously recorded using a DualView with an OI-5-EM filter set (eCFP 480/30; eYFP 535/40; Optical 17 Insights, USA) and Metafluor 6.3r6 software (Molecular Devices, USA). A Sutter Instruments Lambda DG4 provided excitation. Images were acquired within the linear detection range of the camera and exposure times varied between 50 to 200 ms, depending on the expression level, with software binning between 2 and 3. […] Cells were perfused with Tyrode's buffer at flow rates of 1.0 ml/min in a vacuum chamber with a total volume of 0.1 ml. Inhibitors BCH and MeIAB were used at 5 mM concentrations. For determination of the substrate specificity of the tryptophan exchange, all 20 amino acids were tested at 100 μM concentrations.

Assay [2] concerns the target T1, FLIPW-CTYT (Escherichia coli, UniProt P0A881).
T1 construct: Venus (YFP variant); made in house; host or cells: E. coli BL21(DE3)gold
Kind of assay: In vitro FRET titration of FLIPW-CTYT with tryptophan substrates and kynurenines. The assay is classed as binding, E. coli. The following applies: data not shown. How it is done: (§2) In vitro characterization of FLIPW and FLIPpur sensors. […] The eCFP emission used for the ratio calculation was determined at 485 nm. Protein was diluted to give Venus/eYFP readouts of 20,000 to 30,000 at a manual gain between 70-75. By using the change in FRET ratio upon binding of ligand, affinity constants (Kd) were determined by fitting the titration curves to a single-site-binding isotherm: R=Rapo+(Rsat−Rapo)·(n·[L])/(Kd+[L]) with [L], ligand concentration; n, number of equal binding sites; R, ratio; Rapo, ratio in the absence of ligand; and Rsat, ratio at saturation with ligand. Three independent protein preparations were analyzed and each protein preparation was analyzed in triplicate.

Assay [3] deals with LAT1 (Homo sapiens, UniProt Q01650). The following applies: oocytes; sum of free, incorporated and degraded tryptophan; cited from earlier work.
Chain of LAT1 (Q01650 whole entry): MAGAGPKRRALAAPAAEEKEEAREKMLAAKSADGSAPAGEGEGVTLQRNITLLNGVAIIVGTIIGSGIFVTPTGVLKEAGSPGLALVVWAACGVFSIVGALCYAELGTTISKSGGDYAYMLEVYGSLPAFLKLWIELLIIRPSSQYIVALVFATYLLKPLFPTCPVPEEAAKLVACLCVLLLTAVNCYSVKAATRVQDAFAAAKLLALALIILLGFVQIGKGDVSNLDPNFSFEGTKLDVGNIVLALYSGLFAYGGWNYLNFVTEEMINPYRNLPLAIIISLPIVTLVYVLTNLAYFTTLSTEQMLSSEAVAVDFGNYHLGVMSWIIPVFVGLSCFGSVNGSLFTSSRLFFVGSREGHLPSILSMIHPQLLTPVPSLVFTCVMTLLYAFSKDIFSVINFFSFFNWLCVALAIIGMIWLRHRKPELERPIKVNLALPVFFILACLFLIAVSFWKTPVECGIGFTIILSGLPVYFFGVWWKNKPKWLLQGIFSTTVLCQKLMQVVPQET
In assay [4] the test system is COS-7 cells. Conditions: read-out: apparent KM for combined transport and metabolism; 96-well microplate, Michaelis-Menten fit of FRET increase rate, 0.05-25 μM L-tryptophan. How it is done:
as §1

Assay [5] concerns the target T2, FLIPW-CTY (Escherichia coli, UniProt P0A881).
T2 construct: fused on or other part: eCFP at the N-terminus and Venus (YFP variant) at the C-terminus as FRET reporter handles; pRSETb vector leader; Gateway att-derived linkers
Put plainly: In vitro FRET titration of FLIPW-CTY with tryptophan substrates. The assay is classed as binding, E. coli. The procedure:
as §2

Assay [6] has as its target unmodified TrpR (Escherichia coli, UniProt P0A881). Conditions: cited from earlier work.
Assay [7] concerns KB cells. Kind of assay: FRET imaging of intracellular tryptophan in interferon-gamma treated KB cells. The assay is classed as cell-based, human. Conditions: IFNγ 500 U/ml, perfusion with Tyrode's buffer. How it is done: It was also assessed whether affecting the metabolism of tryptophan could be monitored using the FRET nanosensors. The induction of indoleamine 2,3-dioxygenase (IDO) by interferon-gamma in KB cells has been described by Ozaki et al. (Proc. Natl. Acad. Sci. U.S.A. (1988)85: 1242-1246). Indoleamine 2,3-dioxygenase degrades tryptophan to formyl-kynurenine in the cytosol. Accordingly, KB cells were seeded at 10%, 25%, 50% dilution (derived from a suspension that was from ˜90% confluent plate). Interferon gamma (IFNγ) was added at 500 and 1000 U/ml. KB cells used as a control (i.e. no IFNγ) were seeded at 10% dilution only. KB cells were incubated in growth medium (MEM-alpha, 10° A FBS (fetal bovine serum), penicillin/streptomycin) and then in OPTIMEM for 4 days prior to imaging. Cells were transfected (in OPTIMEM) with the pTK222c construct 1 day prior to imaging. IFNγ was maintained during transfection in OPTIMEM. Three hours prior to imaging, the cells were incubated in growth medium (containing IFNγ in the respective cultures). After three hours, the growth medium was exchanged with Tyrode's solution and the cells were kept in incubation chamber until analysis. The cells were perfused with 1 μM, 5 μM, 50 μM, and 100 μM L-tryptophan in Tyrode's solution.

For the molecule `CSCC[C@H](N)C(=O)O` [methionine], the “tryptophan export from tryptophan-preloaded cells (counterexchange)” value (from here on “tryptophan export … (counterexchange)”) in assay [1] is listed as “able to promote tryptophan export”.
Still for that read-out and setting: the result for `CC(C)[C@H](N)C(=O)O` [valine] reads “able to promote tryptophan export”.
With `CNC(C)(C)C(=O)O`, the “effect on the uptake rate of 100 μM L-tryptophan” value in assay [1] is recorded as “did not decrease uptake rates”.
Consider `N[C@@H](Cc1c[nH]cn1)C(=O)O` [histidine, L-histidine], for which, in assay [1], the “tryptophan export … (counterexchange)” value is given as “able to promote tryptophan export”.
On to `Nc1c(O)cccc1C(=O)O` [HAA, hydroxy-anthranilic acid], for which the “tryptophan export … (counterexchange)” value in assay [1] is given as “did not result in tryptophan export”. Further, the “FLIPW-CTYT response or interference with tryptophan binding in vitro” value (shortened to “FLIPW-CTYT response or interference”) in assay [2] is recorded as “did not result in a FLIPW-CTYT response or interfere with tryptophan binding to the sensor”.
On to `N[C@@H](Cc1c[nH]c2ccccc12)C(=O)O` [L-tryptophan], for which, in assay [1] (perfusion imaging, Michaelis-Menten fit), the “affinity of the cells for combined uptake and metabolism of tryptophan” value is 2.6 ± 1.1 µM. In addition, in assay [3], the “affinity of LAT1 for tryptophan uptake” value was 21.4 µM. The Km (as a rule, the substrate concentration at which the rate is half of its maximum) in assay [4] was 0.88 ± 0.27 µM.
On to `N[C@@H](Cc1ccccc1)C(=O)O` [phenylalanine], for which the “tryptophan export … (counterexchange)” value in assay [1] was “able to promote tryptophan export”.
Consider `NC1(C(=O)O)CC2CCC1C2` (stereo not drawn) [BCH, 2-aminobicyclo-(2,2,1)-heptane-2-carboxylic acid], for which, in assay [1], the “effect on the uptake rate of 100 μM L-tryptophan” value is “decreased the uptake of tryptophan”.
`N[C@H](Cc1c[nH]c2ccccc12)C(=O)O` [D-tryptophan]: the “concentration for decrease of FRET ratio relative to L-tryptophan” value in assay [5] is listed as “about 5 fold”. For the same molecule, in assay [6], the “reduced affinity of unmodified TrpR compared to L-tryptophan” value is on record as 20 fold.
For the molecule `N[C@@H](Cc1ccc(O)cc1)C(=O)O` [tyrosine], the “tryptophan export … (counterexchange)” value in assay [1] is on record as “able to promote tryptophan export”.
Consider `Nc1c(O)cccc1C(=O)CC(N)C(=O)O` (stereo not drawn) [HK, 3-hydroxy-kynurenine], for which the “tryptophan export … (counterexchange)” value in assay [1] is recorded as “resulted in reduction of the fluorophore emission ratios in the COS-7 cells, evidencing tryptophan export”. Besides, the “FLIPW-CTYT response or interference” value in assay [2] was “did not result in a FLIPW-CTYT response or interfere with tryptophan binding to the sensor”.
Consider `Nc1ccccc1C(=O)CC(N)C(=O)O` (stereo not drawn) [K, kynurenine], for which the “tryptophan export … (counterexchange)” value in assay [1] is given as “resulted in reduction of the fluorophore emission ratios in the COS-7 cells, evidencing tryptophan export”. For the same molecule, the “FLIPW-CTYT response or interference” value in assay [2] is “did not result in a FLIPW-CTYT response or interfere with tryptophan binding to the sensor”.
Regarding `CC(C)C[C@H](N)C(=O)O` [leucine], the “tryptophan export … (counterexchange)” value in assay [1] is on record as “able to promote tryptophan export”.
Still for that read-out and setting: under `CC[C@H](C)[C@H](N)C(=O)O` [isoleucine] stands “able to promote tryptophan export”.

B1: IFNγ: cytokine interferon gamma, induces indoleamine 2,3-dioxygenase in KB cells (protein, UniProt P01579 24-161, looked up)
Interferon gamma: QDPYVKEAENLKKYFNAGHSDVADNGTLFLGILKNWKEESDRKIMQSQIVSFYFKLFKNFKDDQSIQKSVETIKEDMNVKFFNSNKKKRDDFEKLTNYSVTDLNVQRKAIHELIQVMAELSPAAKTGKRKRSQMLFRG
For B1, in assay [7], the “effect on intracellular tryptophan concentration” value is recorded as “lower the intracellular tryptophan concentration”.
